# From patent US11274332B2, “Methods of administering 3,4-diaminopyridine” (SERB SA, priority 2011, dated 2022)
# Key:
# human hepatocytes = assay: In vitro metabolism of 14C-amifampridine in human hepatocytes (Example 3); type: in vitro ADME; settings: multiple donors
# Experimental: (§1) The objective of this hepatocyte study was to determine the extent of metabolism, complete metabolic profile and metabolite characterization of amifampridine phosphate in several species with ^14C-amifampridine phosphate for a cross species comparison. The following procedures were used to study the metabolism in rat (Example 1), dog (Example 2), and human hepatocytes (Example 3).
# (§2) The cryopreserved hepatocytes were removed from storage, quickly thawed in a 37° C. water bath for 1 to 2 min, and transferred to a 50 ml tube containing pre-warmed InVitroGRO HT medium (Celsis Inc., Baltimore). The cell suspension was mixed by gentle inversion and the cells were pelleted by centrifugation at 50 to 75×g for 5 min. The supernatant medium was removed and the cells were resuspended in Williams' Medium E. Hepatocyte viability was assessed by using trypan blue exclusion. Hepatocyte density was determined by counting cells with a hemocytometer and the density was adjusted with Williams' Medium E to achieve a final density of 1,000,000 cells/mL. […] The supernatant medium was removed and the cells were resuspended in cold Williams' Medium E. The cell density was then determined using a hemocytometer and the density was adjusted with Williams' Medium E to achieve a final density of 1,000,000 cells/mL. […]
# dog hepatocytes = assay: In vitro metabolism of 14C-amifampridine in dog hepatocytes (Example 2); type: in vitro ADME
# Experimental: as §1, §2
smiles,measurement,setting,value
"Nc1ccncc1N [3,4-DAP, 3,4-diaminopyridine]",formation of single major acetylated amifampridine metabolite,human hepatocytes,variable
same,"conversion of 3,4-DAP to its metabolite",dog hepatocytes,No conversion
